Data taken from ChEMBL document CHEMBL1201862, “PubChem BioAssay data set” (2004).
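Five compound concentrations were applied to cells in 96-well plates for 48 hours; endpoints were derived by simple linear interpolation of the resulting dose-response curve. GI50 is the concentration that inhibits growth by half.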 Active and inactive are the calls of the source. No stated cut-off is given here; in the data, active = GI50 up to about 1.1 µM and inactive = higher. Where a SMILES comes first, the peptide text is derived from it. The star is where a group is joined. Boc = CC(C)(C)OC(=O)*; OBn = c1ccc(CO*)cc1

Columns and labels:
Experiment in all cases: inhibition of tumour cell growth, NCI panel, 48 h
Malme-3M = system: Malme-3M
SK-OV-3 = system: SK-OV-3
NCI-H226 = system: NCI-H226
CCRF-CEM = system: CCRF-CEM
PC-3 = system: PC-3
OVCAR-8 = system: OVCAR-8
HT-29 = system: HT-29
SK-MEL-2 = system: SK-MEL-2
COLO 205 = system: COLO 205
A498 = system: A498
SW-620 = system: SW-620
UACC-62 = system: UACC-62
K562 = system: K562
Hs-578T = system: Hs-578T
SN12C = system: SN12C
M14 = system: M14
NCI-H460 = system: NCI-H460
SF-295 = system: SF-295
MOLT-4 = system: MOLT-4
HCC 2998 = system: HCC 2998

Structure (SMILES)	GI50 (Malme-3M)	GI50 (SK-OV-3)	GI50 (NCI-H226)	GI50 (CCRF-CEM)	GI50 (PC-3)	GI50 (OVCAR-8)	GI50 (HT-29)	GI50 (SK-MEL-2)	GI50 (COLO 205)	GI50 (A498)	GI50 (SW-620)	GI50 (UACC-62)	GI50 (K562)	GI50 (Hs-578T)	GI50 (SN12C)	GI50 (M14)	GI50 (NCI-H460)	GI50 (SF-295)	GI50 (MOLT-4)	GI50 (HCC 2998)
Cn1c(=O)c2nc(CCCCc3nc4c(=O)n(C)c(=S)n(C)c4[nH]3)[nH]c2n(C)c1=S	> 100 µM (inactive)	45.2 µM (inactive)	> 100 µM (inactive)	> 100 µM (inactive)	> 100 µM (inactive)	> 100 µM (inactive)	> 100 µM (inactive)	> 100 µM (inactive)	> 100 µM (inactive)	> 100 µM (inactive)	> 100 µM (inactive)	> 100 µM (inactive)	> 100 µM (inactive)	> 100 µM (inactive)	> 100 µM (inactive)	> 100 µM (inactive)	> 100 µM (inactive)	88.1 µM (inactive)	–	–
Cc1ccc(S(=O)(=O)NCc2cccc([N+](=O)[O-])c2)cc1	> 100 µM (inactive)	> 100 µM (inactive)	> 100 µM (inactive)	27.8 µM (inactive)	> 100 µM (inactive)	> 100 µM (inactive)	> 100 µM (inactive)	> 100 µM (inactive)	> 100 µM (inactive)	> 100 µM (inactive)	> 100 µM (inactive)	> 100 µM (inactive)	–	> 100 µM (inactive)	> 100 µM (inactive)	> 100 µM (inactive)	> 100 µM (inactive)	> 100 µM (inactive)	0.136 µM (active)	–
CCOC(=O)C(=O)CC1=Nc2ccccc2SC(c2cccc(C)c2)C1 (stereo not drawn)	17.3 µM (inactive)	> 10 µM (inactive)	16.9 µM (inactive)	20.6 µM (inactive)	–	12.6 µM (inactive)	15.5 µM (inactive)	16.3 µM (inactive)	> 10 µM (inactive)	18.1 µM (inactive)	25.6 µM (inactive)	16.9 µM (inactive)	19.7 µM (inactive)	–	17.1 µM (inactive)	18.6 µM (inactive)	19.5 µM (inactive)	–	17.3 µM (inactive)	16.3 µM (inactive)
COc1cc(C2C(C(=O)Nc3ccc(Cl)c(Cl)c3)=C(C)NC(C)=C2C(=O)Nc2ccc(Cl)c(Cl)c2)ccc1O	12.6 µM (inactive)	14.8 µM (inactive)	16.7 µM (inactive)	3.26 µM (inactive)	–	13.9 µM (inactive)	15.1 µM (inactive)	8.17 µM (inactive)	13.3 µM (inactive)	12.2 µM (inactive)	12.3 µM (inactive)	–	6.68 µM (inactive)	–	12.3 µM (inactive)	12.6 µM (inactive)	12.8 µM (inactive)	18.4 µM (inactive)	4.31 µM (inactive)	11.4 µM (inactive)
Cc1ccc(S(=O)(=O)NC(=O)Nc2ccc(S(N)(=O)=O)cc2S(N)(=O)=O)cc1	> 100 µM (inactive)	> 100 µM (inactive)	> 100 µM (inactive)	> 100 µM (inactive)	> 100 µM (inactive)	> 100 µM (inactive)	> 100 µM (inactive)	> 100 µM (inactive)	> 100 µM (inactive)	–	> 100 µM (inactive)	> 100 µM (inactive)	> 100 µM (inactive)	> 100 µM (inactive)	> 100 µM (inactive)	> 100 µM (inactive)	–	> 100 µM (inactive)	> 100 µM (inactive)	–
NC1=Nc2ccccc2Sc2cccc(F)c21	> 100 µM (inactive)	> 100 µM (inactive)	66.5 µM (inactive)	25.2 µM (inactive)	63.5 µM (inactive)	> 100 µM (inactive)	> 100 µM (inactive)	> 100 µM (inactive)	61.7 µM (inactive)	34.4 µM (inactive)	> 100 µM (inactive)	60.3 µM (inactive)	37.2 µM (inactive)	–	> 100 µM (inactive)	50.9 µM (inactive)	> 100 µM (inactive)	40.4 µM (inactive)	37.8 µM (inactive)	> 100 µM (inactive)
COc1ccc2c(c1)O[C@@H]1C(O)Oc3cc(OC)c(OC)cc3[C@]1(O)C2=O (stereo partly drawn)	–	> 100 µM (inactive)	10.4 µM (inactive)	38.9 µM (inactive)	59.6 µM (inactive)	94.6 µM (inactive)	89.9 µM (inactive)	> 100 µM (inactive)	95.1 µM (inactive)	82.6 µM (inactive)	88.7 µM (inactive)	78 µM (inactive)	42.9 µM (inactive)	20.2 µM (inactive)	> 100 µM (inactive)	> 100 µM (inactive)	69 µM (inactive)	24 µM (inactive)	36.6 µM (inactive)	–
COC(=O)C(Cc1ccccc1)NP(=O)(O)OCC1OC(n2cc(I)c(=O)[nH]c2=O)CC1O (stereo not drawn)	> 100 µM (inactive)	> 100 µM (inactive)	> 100 µM (inactive)	> 100 µM (inactive)	> 100 µM (inactive)	> 100 µM (inactive)	> 100 µM (inactive)	–	> 100 µM (inactive)	> 100 µM (inactive)	> 100 µM (inactive)	> 100 µM (inactive)	> 100 µM (inactive)	> 100 µM (inactive)	> 100 µM (inactive)	> 100 µM (inactive)	> 100 µM (inactive)	> 100 µM (inactive)	> 100 µM (inactive)	–
Cc1ccccc1NC(=O)Cc1csc(N/N=C2\NC(=O)/C(=C/c3cccc([N+](=O)[O-])c3)S2)n1	–	53.1 µM (inactive)	17.8 µM (inactive)	–	16.6 µM (inactive)	31.8 µM (inactive)	34.7 µM (inactive)	26.4 µM (inactive)	34.2 µM (inactive)	–	40.6 µM (inactive)	–	–	–	36.6 µM (inactive)	17 µM (inactive)	15.6 µM (inactive)	18.1 µM (inactive)	23.9 µM (inactive)	14.3 µM (inactive)
COC(CN1C=C(Sc2ccccc2)CC1)OC	35.9 µM (inactive)	37 µM (inactive)	33.3 µM (inactive)	19.5 µM (inactive)	–	29.6 µM (inactive)	24.8 µM (inactive)	19.4 µM (inactive)	22.6 µM (inactive)	48.2 µM (inactive)	21.9 µM (inactive)	31.8 µM (inactive)	20.7 µM (inactive)	–	33.9 µM (inactive)	33.7 µM (inactive)	31.7 µM (inactive)	19.5 µM (inactive)	27.2 µM (inactive)	33.9 µM (inactive)
CCOC(OC1=C(C#N)CCC1)C(C)[Se]c1ccccc1 (stereo not drawn)	12.7 µM (inactive)	> 100 µM (inactive)	19.7 µM (inactive)	> 100 µM (inactive)	–	18.7 µM (inactive)	42.2 µM (inactive)	16.8 µM (inactive)	27.5 µM (inactive)	> 100 µM (inactive)	–	18.5 µM (inactive)	55.6 µM (inactive)	–	14.7 µM (inactive)	16.1 µM (inactive)	36.4 µM (inactive)	22.2 µM (inactive)	18 µM (inactive)	46.7 µM (inactive)
Cc1ccc(-n2c(=S)[nH]c3ccc(Br)cc3c2=O)cc1	> 100 µM (inactive)	–	> 100 µM (inactive)	–	–	> 100 µM (inactive)	> 100 µM (inactive)	> 100 µM (inactive)	> 100 µM (inactive)	> 100 µM (inactive)	> 100 µM (inactive)	–	> 100 µM (inactive)	–	> 100 µM (inactive)	–	> 100 µM (inactive)	> 100 µM (inactive)	> 100 µM (inactive)	> 100 µM (inactive)
CCCSc1ccc2[nH]c(/N=C/c3ccccc3)cc2c1	16.6 µM (inactive)	–	–	13.5 µM (inactive)	34.1 µM (inactive)	23.3 µM (inactive)	22.3 µM (inactive)	16.6 µM (inactive)	19.3 µM (inactive)	28.8 µM (inactive)	23.1 µM (inactive)	17.4 µM (inactive)	8.34 µM (inactive)	27.9 µM (inactive)	27.3 µM (inactive)	25.5 µM (inactive)	–	–	13.7 µM (inactive)	–
O=C(CSc1nc(-c2ccccc2)c(-c2ccccc2)[nH]1)NNC(=S)Nc1ccccc1	> 100 µM (inactive)	> 100 µM (inactive)	> 100 µM (inactive)	39.4 µM (inactive)	–	46.7 µM (inactive)	69.2 µM (inactive)	> 100 µM (inactive)	61.7 µM (inactive)	> 100 µM (inactive)	> 100 µM (inactive)	0.277 µM (active)	–	–	> 100 µM (inactive)	94.6 µM (inactive)	> 100 µM (inactive)	49.9 µM (inactive)	33.7 µM (inactive)	> 100 µM (inactive)
CC(C)CC(NC(=O)C(Cc1ccccc1)NC(=O)C(Cc1ccccc1)NC(=O)OC(C)(C)C)C(=O)OCc1ccccc1 (stereo not drawn) (Boc-Phe-Phe-Leu-OBn; configuration not given here)	> 100 µM (inactive)	> 100 µM (inactive)	> 100 µM (inactive)	> 100 µM (inactive)	> 100 µM (inactive)	> 100 µM (inactive)	> 100 µM (inactive)	> 100 µM (inactive)	> 100 µM (inactive)	> 100 µM (inactive)	> 100 µM (inactive)	> 100 µM (inactive)	> 100 µM (inactive)	> 100 µM (inactive)	> 100 µM (inactive)	> 100 µM (inactive)	–	> 100 µM (inactive)	> 100 µM (inactive)	–
COc1cc(O)c2c(=O)cc(-c3ccc(O)cc3O)oc2c1CC=C(C)C [ARTOCARPETIN A]	16.3 µM (inactive)	–	12.2 µM (inactive)	15.4 µM (inactive)	12.9 µM (inactive)	16.9 µM (inactive)	4.35 µM (inactive)	17.2 µM (inactive)	9.25 µM (inactive)	22.1 µM (inactive)	24.3 µM (inactive)	20 µM (inactive)	17 µM (inactive)	28.4 µM (inactive)	16.4 µM (inactive)	13.8 µM (inactive)	14.3 µM (inactive)	12.9 µM (inactive)	8.93 µM (inactive)	–
